Measurements from EP1433789A1, “Pyrrolopyrazines and their use as selective apoptosis inducers” (Aponetics AG, priority 2002, dated 2004).

What was measured:
A20 = assay: Hoechst 33342 nuclear staining (Table 3); type: cell-based, mouse; design: key: 0 relating to no activity; 1 relating to weak activity comprising less than 50% of the cells; score 2 relating to strong activity comprising more than 50% of the cells
Method in brief: (§1)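 Adherent cells (3-5×10^3, pre-spread 24 h) or suspension cells (8-10×10^3) treated with compounds at 10, 3, 1 and 0.3 µM for 24 or 48 h, then Hoechst 33342 stained for 30 min. Apoptotic nuclear morphology scored by fluorescence microscopy: 0 none, 1 weak (<50% cells), 2 strong (>50% cells).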

HeLa [1] = assay: Hoechst 33342 nuclear staining (Table 3); type: cell-based, human; design: key: 0 relating to no activity; 1 relating to weak activity comprising less than 50% of the cells; score 2 relating to strong activity comprising more than 50% of the cells
Method in brief: as §1

Jurkat [2] = assay: Hoechst 33342 nuclear staining (Table 3); type: cell-based, human; design: key: 0 relating to no activity; 1 relating to weak activity comprising less than 50% of the cells; score 2 relating to strong activity comprising more than 50% of the cells
Method in brief: as §1

K562 [3] = assay: Hoechst 33342 nuclear staining (Table 3); type: cell-based, human; design: key: 0 relating to no activity; 1 relating to weak activity comprising less than 50% of the cells; score 2 relating to strong activity comprising more than 50% of the cells
Method in brief: as §1

KB = assay: Hoechst 33342 nuclear staining (Table 3); type: cell-based, human; design: key: 0 relating to no activity; 1 relating to weak activity comprising less than 50% of the cells; score 2 relating to strong activity comprising more than 50% of the cells
Method in brief: as §1

HeLa [4] = assay: MTS proliferation assay; type: cell-based; settings: Homo sapiens, 72 h incubation
Method in brief: (§2)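 Cells (1.5*10^3–10^4/well) seeded 24 h before treatment, then exposed 72 h to compound at 10, 3, 1 or 0.3 µM final (≤5% DMSO in added medium). Viability by MTS reagent, 3 h further incubation, absorbance at 492 nm.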

Jurkat [5] = assay: MTS proliferation assay; type: cell-based; settings: Homo sapiens, 72 h incubation
Method in brief: as §2

K562 [6] = assay: MTS proliferation assay; type: cell-based; settings: Homo sapiens, K562, 72 h incubation
Method in brief: as §2

HeLa [7] = assay: BrdU incorporation (proliferation); type: cell-based, human; design: key: 0 for no activity; 1 for a moderate inhibition; 2 for strong inhibition of proliferation; settings: 48 h
Protocol: (§3) Adherent cells are seeded out at 2 - 4*10^4 cells/well/ml in 24 well tissue culture plates 24 h prior to treatment. Suspension cells are seeded out at 2*10^5 cells/ml/well in 24 well plates. Compounds are added leading to final concentrations of 3 µM and 10 µM, respectively. Subsequently, BrdU (Molecular Probes #B-23151) at 10 µM final concentration is added and the plates are incubated for 48 h. After the incubation cells are processed according to standard procedures. The detection of the incorporated BrdU is done with the anti-bromodeoxyuridine Mab PRB-1, Alexa Fluor 660 conjugate (Molecular Probes #A-21306). The analysis is performed on a FACSCalibur™ by monitoring the fluorescence activity on FL3. The readout reflects DNA synthesis which is a hallmark for proliferation. The scores are defined the following: 0 for no activity, 1 for a moderate inhibition and 2 for strong inhibition of proliferation. Table 7 indicates inhibitory activities of several tested compounds on proliferation.

Jurkat [8] = assay: BrdU incorporation (proliferation); type: cell-based, human; design: key: 0 for no activity; 1 for a moderate inhibition; 2 for strong inhibition of proliferation; settings: 48 h
Protocol: as §3

CC1Cc2ccccc2-c2c(Cl)c3nc4ccccc4nc3n21 (centres unmarked) [compound 11]
Hoechst 33342 nuclear staining (A20; A20, 24h, conc 1 (µM)): 0 | Hoechst 33342 nuclear staining (A20; A20, 24h, conc 3 (µM)): 0 | Hoechst 33342 nuclear staining (A20; A20, 24h, conc 10 (µM)): 0 | Hoechst 33342 nuclear staining (A20; A20, 48h, conc 0.3 (µM)): 0 | Hoechst 33342 nuclear staining (A20; A20, 48h, conc 1 (µM)): 0 | Hoechst 33342 nuclear staining (A20; A20, 48h, conc 3 (µM)): 0 | Hoechst 33342 nuclear staining (A20; A20, 48h, conc 10 (µM)): 2 (score 2 relating to strong activity comprising more than 50% of the cells) | Hoechst 33342 nuclear staining (HeLa [1]; 24h, conc 0.3 (µM)): 0 | Hoechst 33342 nuclear staining (HeLa [1]; 24h, conc 1 (µM)): 0 | Hoechst 33342 nuclear staining (HeLa [1]; 24h, conc 3 (µM)): 0 | Hoechst 33342 nuclear staining (HeLa [1]; 24h, conc 10 (µM)): 0 | Hoechst 33342 nuclear staining (HeLa [1]; 48h, conc 0.3 (µM)): 0 | Hoechst 33342 nuclear staining (HeLa [1]; 48h, conc 1 (µM)): 0 | Hoechst 33342 nuclear staining (HeLa [1]; 48h, conc 3 (µM)): 0 | Hoechst 33342 nuclear staining (HeLa [1]; 48h, conc 10 (µM)): 2 (score 2 relating to strong activity comprising more than 50% of the cells) | Hoechst 33342 nuclear staining (Jurkat [2]; 24h, conc 0.3 (µM)): 0 | Hoechst 33342 nuclear staining (Jurkat [2]; 24h, conc 1 (µM)): 0 | Hoechst 33342 nuclear staining (Jurkat [2]; 24h, conc 3 (µM)): 2 (score 2 relating to strong activity comprising more than 50% of the cells) | Hoechst 33342 nuclear staining (Jurkat [2]; 24h, conc 10 (µM)): 2 (score 2 relating to strong activity comprising more than 50% of the cells) | Hoechst 33342 nuclear staining (Jurkat [2]; 48h, conc 0.3 (µM)): 1 (1 relating to weak activity comprising less than 50% of the cells) | Hoechst 33342 nuclear staining (Jurkat [2]; 48h, conc 1 (µM)): 2 (score 2 relating to strong activity comprising more than 50% of the cells) | Hoechst 33342 nuclear staining (Jurkat [2]; 48h, conc 3 (µM)): 2 (score 2 relating to strong activity comprising more than 50% of the cells) | Hoechst 33342 nuclear staining (Jurkat [2]; 48h, conc 10 (µM)): 2 (score 2 relating to strong activity comprising more than 50% of the cells) | Hoechst 33342 nuclear staining (K562 [3]; K562, 24h, conc 0.3 (µM)): 0 | Hoechst 33342 nuclear staining (K562 [3]; K562, 24h, conc 1 (µM)): 0 | Hoechst 33342 nuclear staining (K562 [3]; K562, 24h, conc 3 (µM)): 0 | Hoechst 33342 nuclear staining (K562 [3]; K562, 24h, conc 10 (µM)): 2 (score 2 relating to strong activity comprising more than 50% of the cells) | Hoechst 33342 nuclear staining (K562 [3]; K562, 48h, conc 0.3 (µM)): 0 | Hoechst 33342 nuclear staining (K562 [3]; K562, 48h, conc 1 (µM)): 0 | Hoechst 33342 nuclear staining (K562 [3]; K562, 48h, conc 3 (µM)): 1 (1 relating to weak activity comprising less than 50% of the cells) | Hoechst 33342 nuclear staining (K562 [3]; K562, 48h, conc 10 (µM)): 2 (score 2 relating to strong activity comprising more than 50% of the cells) | Hoechst 33342 nuclear staining (KB; 24h, conc 0.3 (µM)): 0 | Hoechst 33342 nuclear staining (KB; 24h, conc 1 (µM)): 0 | Hoechst 33342 nuclear staining (KB; 24h, conc 3 (µM)): 0 | Hoechst 33342 nuclear staining (KB; 24h, conc 10 (µM)): 0 | Hoechst 33342 nuclear staining (KB; 48h, conc 0.3 (µM)): 0 | Hoechst 33342 nuclear staining (KB; 48h, conc 1 (µM)): 0 | Hoechst 33342 nuclear staining (KB; 48h, conc 3 (µM)): 1 (1 relating to weak activity comprising less than 50% of the cells) | Hoechst 33342 nuclear staining (KB; 48h, conc 10 (µM)): 2 (score 2 relating to strong activity comprising more than 50% of the cells) | IC50 (HeLa [4]): > 10 µM | IC50 (Jurkat [5]): > 10 µM | IC50 (K562 [6]): > 10 µM | BrdU incorporation (inhibition of proliferation) (HeLa [7]; 3uM): 1 | BrdU incorporation (inhibition of proliferation) (Jurkat [8]; 3uM): 0 | BrdU incorporation (inhibition of proliferation) (Jurkat [8]; 10uM): 2

COc1cc2c(cc1OC)-c1c(Cl)c3nc4ccccc4nc3n1C(C)C2 (centres unmarked) [compound 12]
Hoechst 33342 nuclear staining (A20; A20, 24h, conc 0.3 (µM)): 0 | Hoechst 33342 nuclear staining (A20; A20, 24h, conc 1 (µM)): 0 | Hoechst 33342 nuclear staining (A20; A20, 24h, conc 3 (µM)): 0 | Hoechst 33342 nuclear staining (A20; A20, 24h, conc 10 (µM)): 0 | Hoechst 33342 nuclear staining (A20; A20, 48h, conc 0.3 (µM)): 0 | Hoechst 33342 nuclear staining (A20; A20, 48h, conc 1 (µM)): 0 | Hoechst 33342 nuclear staining (A20; A20, 48h, conc 3 (µM)): 0 | Hoechst 33342 nuclear staining (A20; A20, 48h, conc 10 (µM)): 2 (score 2 relating to strong activity comprising more than 50% of the cells) | Hoechst 33342 nuclear staining (HeLa [1]; 24h, conc 0.3 (µM)): 0 | Hoechst 33342 nuclear staining (HeLa [1]; 24h, conc 1 (µM)): 0 | Hoechst 33342 nuclear staining (HeLa [1]; 24h, conc 3 (µM)): 0 | Hoechst 33342 nuclear staining (HeLa [1]; 24h, conc 10 (µM)): 0 | Hoechst 33342 nuclear staining (HeLa [1]; 48h, conc 0.3 (µM)): 0 | Hoechst 33342 nuclear staining (HeLa [1]; 48h, conc 1 (µM)): 1 (1 relating to weak activity comprising less than 50% of the cells) | Hoechst 33342 nuclear staining (HeLa [1]; 48h, conc 3 (µM)): 2 (score 2 relating to strong activity comprising more than 50% of the cells) | Hoechst 33342 nuclear staining (HeLa [1]; 48h, conc 10 (µM)): 2 (score 2 relating to strong activity comprising more than 50% of the cells) | Hoechst 33342 nuclear staining (Jurkat [2]; 24h, conc 0.3 (µM)): 0 | Hoechst 33342 nuclear staining (Jurkat [2]; 24h, conc 1 (µM)): 0 | Hoechst 33342 nuclear staining (Jurkat [2]; 24h, conc 3 (µM)): 1 (1 relating to weak activity comprising less than 50% of the cells) | Hoechst 33342 nuclear staining (Jurkat [2]; 24h, conc 10 (µM)): 2 (score 2 relating to strong activity comprising more than 50% of the cells) | Hoechst 33342 nuclear staining (Jurkat [2]; 48h, conc 0.3 (µM)): 1 (1 relating to weak activity comprising less than 50% of the cells) | Hoechst 33342 nuclear staining (Jurkat [2]; 48h, conc 1 (µM)): 2 (score 2 relating to strong activity comprising more than 50% of the cells) | Hoechst 33342 nuclear staining (Jurkat [2]; 48h, conc 3 (µM)): 2 (score 2 relating to strong activity comprising more than 50% of the cells) | Hoechst 33342 nuclear staining (Jurkat [2]; 48h, conc 10 (µM)): 2 (score 2 relating to strong activity comprising more than 50% of the cells) | Hoechst 33342 nuclear staining (K562 [3]; K562, 24h, conc 0.3 (µM)): 0 | Hoechst 33342 nuclear staining (K562 [3]; K562, 24h, conc 1 (µM)): 0 | Hoechst 33342 nuclear staining (K562 [3]; K562, 24h, conc 3 (µM)): 0 | Hoechst 33342 nuclear staining (K562 [3]; K562, 24h, conc 10 (µM)): 2 (score 2 relating to strong activity comprising more than 50% of the cells) | Hoechst 33342 nuclear staining (K562 [3]; K562, 48h, conc 0.3 (µM)): 0 | Hoechst 33342 nuclear staining (K562 [3]; K562, 48h, conc 1 (µM)): 1 (1 relating to weak activity comprising less than 50% of the cells) | Hoechst 33342 nuclear staining (K562 [3]; K562, 48h, conc 3 (µM)): 2 (score 2 relating to strong activity comprising more than 50% of the cells) | Hoechst 33342 nuclear staining (K562 [3]; K562, 48h, conc 10 (µM)): 2 (score 2 relating to strong activity comprising more than 50% of the cells) | Hoechst 33342 nuclear staining (KB; 24h, conc 0.3 (µM)): 0 | Hoechst 33342 nuclear staining (KB; 24h, conc 1 (µM)): 0 | Hoechst 33342 nuclear staining (KB; 24h, conc 3 (µM)): 0 | Hoechst 33342 nuclear staining (KB; 24h, conc 10 (µM)): 2 (score 2 relating to strong activity comprising more than 50% of the cells) | Hoechst 33342 nuclear staining (KB; 48h, conc 0.3 (µM)): 0 | Hoechst 33342 nuclear staining (KB; 48h, conc 1 (µM)): 0 | Hoechst 33342 nuclear staining (KB; 48h, conc 3 (µM)): 2 (score 2 relating to strong activity comprising more than 50% of the cells) | Hoechst 33342 nuclear staining (KB; 48h, conc 10 (µM)): 2 (score 2 relating to strong activity comprising more than 50% of the cells) | IC50 (HeLa [4]): > 10 µM | IC50 (Jurkat [5]): > 10 µM | IC50 (K562 [6]): > 10 µM | BrdU incorporation (inhibition of proliferation) (HeLa [7]; 3uM): 1 | BrdU incorporation (inhibition of proliferation) (HeLa [7]; 10uM): 1 | BrdU incorporation (inhibition of proliferation) (Jurkat [8]; 3uM): 2 | BrdU incorporation (inhibition of proliferation) (Jurkat [8]; 10uM): 2
